SMILES strings stand for the structures.

For assay [1], the target named is A-Raf kinase (SEQ. ID No: 1) (Homo sapiens (Human), UniProt P10398, Y301D/Y302D). Briefly: Biochemical Assay for A-Raf (1). Particulars: Table J, assay version (1); read-out: ARAF (1) IC50. In a few lines: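 IC50 values were derived by four-parameter sigmoidal fitting of percent inhibition, calculated from reaction rates over the 4–5 h window. Absorbance at 340 nm was tracked for 6 h at 30 °C via coupled PK/LDH NADH depletion. Conditions: 1 mM ATP, 30.1 nM MEK substrate, 5.55 nM A-Raf (Y301D/Y302D), Tris pH 7.5, 1% DMSO.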

The target of assay [2] is C-Raf kinase (SEQ. ID NO: 3) (Homo sapiens (Human), UniProt P04049, Y340D/Y341D). Briefly: Biochemical Assay for C-Raf (1). Particulars: Table J, assay version (1); read-out: CRAF (1) IC50. In a few lines:
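IC50 values come from a four-parameter fit of percent inhibition, using the reaction rate over 4–5 h of a 6 h continuous 340 nm read at 30 °C. The enzyme mix was C-Raf 0.43 nM, MEK substrate 30.1 nM and ATP 1 mM, in a PK/LDH NADH-coupled format in Tris pH 7.5 with 1% DMSO.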

For assay [3], the target named is B-Raf kinase (SEQ. ID NO: 2) (Homo sapiens (Human), UniProt P15056). Briefly: Biochemical Assay for B-Raf (1). The settings on record: Table J, assay version (1); read-out: BRAF (1) IC50. The gist of the method: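 IC50 derived by four-parameter sigmoidal fit of percent inhibition, normalised to uninhibited and reference-inhibitor controls, using reaction rates over 4–5 h. Coupled spectrophotometric readout (NADH loss at 340 nm, 6 h, 30° C.); 1 mM ATP, 30.1 nM MEK, 0.13 nM B-Raf, pH 7.5 Tris buffer, 1% DMSO.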
Chain of B-Raf kinase (SEQ. ID NO: 2) (P15056 416-766): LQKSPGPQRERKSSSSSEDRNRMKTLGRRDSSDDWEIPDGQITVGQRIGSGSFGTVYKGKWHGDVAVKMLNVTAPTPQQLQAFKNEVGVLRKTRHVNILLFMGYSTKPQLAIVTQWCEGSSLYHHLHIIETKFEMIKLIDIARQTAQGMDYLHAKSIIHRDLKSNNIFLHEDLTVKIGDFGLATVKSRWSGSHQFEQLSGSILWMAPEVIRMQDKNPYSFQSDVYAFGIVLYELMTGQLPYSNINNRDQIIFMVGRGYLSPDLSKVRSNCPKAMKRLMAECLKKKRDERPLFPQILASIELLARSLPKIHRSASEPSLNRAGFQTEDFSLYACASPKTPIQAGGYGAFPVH

Chain of C-Raf kinase (SEQ. ID NO: 3) (P04049 307-648 Y340D/Y341D): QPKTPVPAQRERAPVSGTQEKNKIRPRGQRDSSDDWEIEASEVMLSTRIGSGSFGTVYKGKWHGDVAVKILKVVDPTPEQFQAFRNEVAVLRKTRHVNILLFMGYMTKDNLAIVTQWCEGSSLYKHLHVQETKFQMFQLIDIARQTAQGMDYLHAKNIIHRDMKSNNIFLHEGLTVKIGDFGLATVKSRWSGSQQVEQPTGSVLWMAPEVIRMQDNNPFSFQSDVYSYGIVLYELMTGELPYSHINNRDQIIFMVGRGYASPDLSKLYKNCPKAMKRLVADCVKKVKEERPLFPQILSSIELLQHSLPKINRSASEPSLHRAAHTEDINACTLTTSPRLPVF
Chain of A-Raf kinase (SEQ. ID No: 1) (P10398 other isoform, or with tags, fused parts or gaps Y301D (already in the parent)/Y302D (already in the parent)): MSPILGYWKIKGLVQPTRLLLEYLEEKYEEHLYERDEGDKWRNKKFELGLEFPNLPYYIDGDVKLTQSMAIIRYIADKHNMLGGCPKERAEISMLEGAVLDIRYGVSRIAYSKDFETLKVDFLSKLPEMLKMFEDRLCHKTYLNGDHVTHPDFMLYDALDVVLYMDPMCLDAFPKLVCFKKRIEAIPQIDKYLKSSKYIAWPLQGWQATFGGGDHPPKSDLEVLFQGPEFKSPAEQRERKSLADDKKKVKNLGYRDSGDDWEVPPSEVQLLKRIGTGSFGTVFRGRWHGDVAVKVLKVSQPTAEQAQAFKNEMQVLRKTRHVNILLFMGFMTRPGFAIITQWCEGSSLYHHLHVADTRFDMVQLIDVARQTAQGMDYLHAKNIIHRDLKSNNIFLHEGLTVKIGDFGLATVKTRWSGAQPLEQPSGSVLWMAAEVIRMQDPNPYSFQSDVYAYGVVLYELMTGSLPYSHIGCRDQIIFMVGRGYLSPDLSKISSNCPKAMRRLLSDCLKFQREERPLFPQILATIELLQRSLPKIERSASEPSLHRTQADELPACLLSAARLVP

A word on the IC50: it is the point on the concentration scale where inhibition reaches its midpoint. `CC(=O)Nc1cc(-c2cc(-c3cc(NC(=O)c4ccnc(C(F)(F)F)c4)c(F)cc3C)cc(C)n2)ccn1` [Example 4]: the IC50 was 1000 to 10000 nM in assay [1], not above 100 nM in assay [2] and not above 100 nM in assay [3].

For `CC(=O)Nc1cc(-c2cc(-c3cc(NC(=O)c4ccnc(C(F)(F)F)c4)ccc3C)cc(C)n2)ccn1` [Example 5], the concentration for half-maximal inhibition (IC50) in assay [1] was 1000 to 10000 nM; in assay [2], not above 100 nM; in assay [3] it was not above 100 nM.

On to `Cc1cc(F)c(NC(=O)c2ccnc(C(F)(F)F)c2)cc1-c1ccnc(-c2ccnc(NC(=O)CN(C)C)c2)c1` [Example 7], for which the concentration for half-maximal inhibition (IC50) in assay [1] was 1000 to 10000 nM; in assay [2], not above 100 nM; in assay [3], not above 100 nM.

For the compound `CCOc1cc(-c2cc(NC(=O)c3ccnc(C(F)(F)F)c3)ccc2C)cc(-c2ccnc(NC(C)=O)c2)n1` [Example 8], the IC50 was 1000 to 10000 nM in assay [1], not above 100 nM in assay [2] and not above 100 nM in assay [3].

As for `CC(=O)Nc1cc(-c2cc(-c3cc(NC(=O)c4ccnc(C(F)(F)F)c4)c(F)cc3C)cc(OC(C)C)n2)ccn1` [Example 10], the half-maximal inhibitory concentration (IC50) in assay [1] was in the range of 1000 to 10000 nM; in assay [2] it was 100 to 500 nM; in assay [3], 100 to 500 nM.

As for `CC(=O)Nc1cc(-c2cc(-c3cc(NC(=O)c4ccnc(C(F)(F)F)c4)ccc3C)cc(=O)n2C)ccn1` [Example 11], the results for the IC50 in assay [1], in assay [2] and in assay [3] were 1000 to 10000 nM, not above 100 nM and 100 to 500 nM, respectively.

Regarding `Cc1ncc(NC(=O)c2ccnc(C(F)(F)F)c2)cc1-c1cccc(-c2ccnc(N)c2)c1` [Example 94], the IC50 in assay [1] is 1000 to 10000 nM; in assay [2], not above 100 nM; in assay [3], 100 to 500 nM.

For the compound `Cc1ncc(NC(=O)c2cccc(C(F)(F)F)c2)cc1-c1cccc(-c2ccnc(NC(=O)CC#N)c2)c1` [Example 97], the IC50 in assay [1] was 500 to 1000 nM; in assay [2], not above 100 nM; in assay [3], not above 100 nM.

Turning to `Cc1ccc(NC(=O)c2ccnc(C(F)(F)F)c2)cc1-c1cncc(-c2ccnc(NC(=O)CC#N)c2)n1` [Example 98], the results for the concentration for half-maximal inhibition (IC50) in assay [1], in assay [2] and in assay [3] were 100 to 500 nM, not above 100 nM and not above 100 nM, respectively.

`COCC(=O)Nc1cc(-c2cncc(-c3cc(NC(=O)c4ccnc(C(F)(F)F)c4)ccc3C)n2)ccn1` [Example 99]: the figures for the IC50 in assay [1], in assay [2] and in assay [3] were 1000 to 10000 nM, not above 100 nM and not above 100 nM, respectively.

Turning to `Cc1ccc(NC(=O)c2ccnc(C(F)(F)F)c2)cc1-c1cncc(-c2ccnc(NC(=O)CN(C)C)c2)n1` [Example 100], the 50% inhibitory concentration (IC50) in assay [1] was 1000 to 10000 nM; in assay [2] it was not above 100 nM; in assay [3], not above 100 nM.

For the compound `Cc1ccc(NC(=O)c2ccnc(C(C)(C)C#N)c2)cc1-c1ccnc(-c2ccnc3c2CC(=O)N3)n1` [Example 101], the 50% inhibitory concentration (IC50) was 1000 to 10000 nM in assay [1], not above 100 nM in assay [2] and not above 100 nM in assay [3].

`CC(=O)Nc1cc(-c2cc(-c3cc(NC(=O)c4ccnc(C(F)(F)F)c4)ccc3C)cn(CCO)c2=O)ccn1` [Example 102]: the IC50 in assay [1] lay within 1000 to 10000 nM; in assay [2], 100 to 500 nM; in assay [3], 100 to 500 nM.

With `Cc1ncc(NC(=O)c2ccnc(C(C)(C)C#N)c2)cc1-c1cccc(-c2ccnc3c2CC(=O)N3)c1` [Example 105], the 50% inhibitory concentration (IC50) in assay [1] was 1000 to 10000 nM; in assay [2], not above 100 nM; in assay [3], 100 to 500 nM.

Take `CNC(=O)c1cc(-c2cccc(-c3cc(NC(=O)c4ccnc(C(F)(F)F)c4)ccc3C)c2)ncn1` [Example 106]: the half-maximal inhibitory concentration (IC50) was 1000 to 10000 nM in assay [1], not above 100 nM in assay [2] and 100 to 500 nM in assay [3].

In the case of `CC(=O)Nc1cc(-c2nccc(-c3cc(NC(=O)c4ccnc(C(F)(F)F)c4)c(F)cc3C)n2)ccn1` [Example 107], the IC50 was 500 to 1000 nM in assay [1], not above 100 nM in assay [2] and not above 100 nM in assay [3].

On to `Cc1ccc(NC(=O)c2ccnc(C(C)(C)C#N)c2)cc1-c1cccc(-c2ncnc3c2CC(=O)N3)c1` [Example 109], for which the half-inhibitory concentration (IC50) in assay [1] is 1000 to 10000 nM; in assay [2], not above 100 nM; in assay [3], not above 100 nM.

With `Cc1ncc(NC(=O)c2ccnc(C(C)(C)C#N)c2)cc1-c1cccc(-c2ncnc3c2CC(=O)N3)c1` [Example 110], the 50% inhibitory concentration (IC50) in assay [1] lay in the range of 1000 to 10000 nM; in assay [2], 100 to 500 nM; in assay [3], 100 to 500 nM.

As for `CC(=O)Nc1cc(-c2cc(-c3cc(NC(=O)c4ccnc(C(C)(C)C#N)c4)ccc3C)cn(C)c2=O)ccn1` [Example 113], the IC50 was 1000 to 10000 nM in assay [1], not above 100 nM in assay [2] and 100 to 500 nM in assay [3].

Regarding `CC(=O)Nc1cc(-c2cccc(-c3cc(NC(=O)c4ccnc(C(F)(F)F)c4)c(F)cc3C)c2)ncn1` [Example 114], the IC50 in assay [1] was 1000 to 10000 nM; in assay [2], not above 100 nM; in assay [3], not above 100 nM.

Turning to `Cc1ccc(NC(=O)c2ccnc(C(F)F)c2)cc1-c1cncc(-c2ccnc(NC(=O)C3CC3)c2)n1` [Example 117], the values for the IC50 in assay [1], in assay [2] and in assay [3] were 1000 to 10000 nM, not above 100 nM and not above 100 nM, respectively.

On to `CC(=O)Nc1cc(-c2nccc(-c3cc(NC(=O)c4ccnc(C(C)(C)C#N)c4)ccc3C)n2)ccn1` [Example 118], for which the 50% inhibitory concentration (IC50) in assay [1] is 500 to 1000 nM; in assay [2] it was not above 100 nM; in assay [3], not above 100 nM.

Turning to `COc1cc(C(=O)Nc2ccc(C)c(-c3cncc(-c4ccnc(NC(C)=O)c4)n3)c2)ccc1F` [Example 120], the IC50 is 1000 to 10000 nM in assay [1], not above 100 nM in assay [2] and not above 100 nM in assay [3].

With `CC(=O)Nc1cc(-c2cncc(-c3cc(NC(=O)c4ccc(Cl)c(C(F)(F)F)c4)ccc3C)n2)ccn1` [Example 121], the IC50 in assay [1] was 1000 to 10000 nM; in assay [2] it was not above 100 nM; in assay [3], not above 100 nM.

In the case of `Cc1ccc(NC(=O)c2ccnc(C(F)(F)F)c2)cc1-c1cncc(-c2ccnc(NC=O)c2)n1` [Example 123], the half-inhibitory concentration (IC50) was 1000 to 10000 nM in assay [1], not above 100 nM in assay [2] and not above 100 nM in assay [3].

`CNC(=O)c1cc(-c2cc(-c3cc(NC(=O)c4cccc(C(C)(C)C#N)c4)ccc3C)ccn2)ccn1` [Example 127]: the IC50 in assay [1] was 1000 to 10000 nM; in assay [2] it was not above 100 nM; in assay [3], not above 100 nM.

On to `CC(=O)Nc1nccc(-c2cccc(-c3cc(NC(=O)c4ccnc(C(F)(F)F)c4)ccc3C)c2)c1C#N` [Example 132], for which the results for the IC50 in assay [1], in assay [2] and in assay [3] were 1000 to 10000 nM, not above 100 nM and 100 to 500 nM, respectively.

`CNC(=O)c1cc(-c2cncc(-c3cc(NC(=O)c4cc(C(F)(F)F)ccn4)ccc3C)n2)ccn1` [Example 135]: the IC50 in assay [1] was 1000 to 10000 nM; in assay [2], not above 100 nM; in assay [3], not above 100 nM.

On to `CNC(=O)c1cc(-c2cncc(-c3cc(NC(=O)c4cccc(C(C)(C)C#N)c4)ccc3C)n2)ccn1` [Example 136], for which the half-maximal inhibitory concentration (IC50) in assay [1] is 1000 to 10000 nM; in assay [2] it was not above 100 nM; in assay [3], not above 100 nM.

Take `CNC(=O)c1cc(-c2cncc(-c3cc(NC(=O)c4ccnc(C5(C#N)CC5)c4)ccc3C)n2)ccn1` [Example 138]: the IC50 in assay [1] was 1000 to 10000 nM; in assay [2], not above 100 nM; in assay [3], not above 100 nM.

For `CNC(=O)c1cc(-c2cncc(-c3cc(NC(=O)c4ccnc(C5CC5)c4)ccc3C)n2)ccn1` [Example 139], the IC50 was 1000 to 10000 nM in assay [1], not above 100 nM in assay [2] and not above 100 nM in assay [3].

The values are drawn from US12319655B2, “RAF kinase inhibitors and methods of use thereof” (Deciphera Pharmaceuticals, LLC, priority 2021, dated 2025).
